Experimental findings from US8735414B2 (priority 2009, dated 2014) are described below.

What is called IC50 is the concentration that gives 50% inhibition. By melting point is commonly meant the temperature, or range, at which the solid turns liquid.

In series [1] the test system is bicistronic HCV replicon (replicon RNA, GenBank Accession No. AJ242654). The experiment in a line: HCV Replicon Assay. In kind it is cell-based. To be noted: Hepatitis C virus, 72 h, read-out: Replicon IC50. Background: A replicon is a self-replicating genome or part of one, used to study replication in cells.

Take `Cc1cc2c(cc1F)c(C(=O)O)c(-c1ncc(S(=O)(=O)NC(C)(C)C)cn1)n2C1CCC1` [compound 794, 2-[5-(tert-butylsulfamoyl)pyrimidin-2-yl]-1-cyclobutyl-5-fluoro-6-methyl-1H-indole-3-carboxylic acid]: the melting point was in the range of 194 to 201 °C. Also, the IC50 in series [1] is 2000 to 5000 nM.

As for `Cc1cc2c(C(N)=O)c(-c3ccc(S(=O)(=O)N[C@@H](C)C(F)(F)F)cn3)n(-c3ncccn3)c2cc1F` [compound 918, 6-fluoro-5-methyl-1-(pyrimidin-2-yl)-2-(5-{[(2S)-1,1,1-trifluoropropan-2-yl]sulfamoyl}pyridin-2-yl)-1H-indole-3-carboxamide], the melting point fell in the range of 245 to 249 °C. Also, the half-inhibitory concentration (IC50) in series [1] was 2000 to 5000 nM.

Regarding `COc1ccc2c(C#N)c(-c3ncc(S(=O)(=O)NC(CF)CF)cn3)n(C3CCC3)c2c1` [compound 230, 2-(3-cyano-1-cyclobutyl-6-methoxy-1H-indol-2-yl)-N-(1,3-difluoropropan-2-yl)pyrimidine-5-sulfonamide], the melting point was 217 to 219 °C. For the same compound, the IC50 in series [1] is < 500 nM.

Regarding `Cc1ccc2c(C#N)c(-c3ncc(S(=O)(=O)N[C@@H](C)C(F)(F)F)cn3)n(C3CCC3)c2c1` [compound 325, 2-(3-cyano-1-cyclobutyl-6-methyl-1H-indol-2-yl)-N-[(2S)-1,1,1-trifluoropropan-2-yl]pyrimidine-5-sulfonamide], the melting point fell in the range of 242 to 243 °C. In series [1], the IC50 is < 500 nM.

Compound `CCc1cc2c(cc1F)c(C(N)=O)c(-c1ccc(S(=O)(=O)N[C@@H](C)C(F)(F)F)cn1)n2-c1ccnc(C)n1` [compound 982, 6-ethyl-5-fluoro-1-(2-methylpyrimidin-4-yl)-2-(5-{[(2S)-1,1,1-trifluoropropan-2-yl]sulfamoyl}pyridin-2-yl)-1H-indole-3-carboxamide] returned a melting point of 115 to 120 °C. In series [1], the half-inhibitory concentration (IC50) lay within 2000 to 5000 nM.

Regarding `Cc1ccc2c(c1)c(C#N)c(-c1ncc(S(=O)(=O)NC(CF)CF)cn1)n2C1CCC1` [compound 122, 2-(3-cyano-1-cyclobutyl-5-methyl-1H-indol-2-yl)-N-(1,3-difluoropropan-2-yl)pyrimidine-5-sulfonamide], the melting point was 140 to 145 °C. The half-inhibitory concentration (IC50) in series [1] was < 500 nM.

The compound `Cc1cc2c(cc1F)c(C(=O)N(C)C)c(-c1ccc(S(=O)(=O)N[C@@H](C)C(F)(F)F)cn1)n2C1CCCC1` [compound 783, 1-cyclopentyl-5-fluoro-N,N,6-trimethyl-2-(5-{[(2S)-1,1,1-trifluoropropan-2-yl]sulfamoyl}pyridin-2-yl)-1H-indole-3-carboxamide] yielded a melting point of 278 to 280 °C. For the same compound, the concentration for half-maximal inhibition (IC50) in series [1] was in the range of 2000 to 5000 nM.

`C[C@@H](NS(=O)(=O)c1ccc(-c2c(C#N)c3cc(F)c(OC(F)F)cc3n2C2CCC2)nc1)C(F)(F)F` [compound 648, 6-[3-cyano-1-cyclobutyl-6-(difluoromethoxy)-5-fluoro-1H-indol-2-yl]-N-[(2R)-1,1,1-trifluoropropan-2-yl]pyridine-3-sulfonamide] came in with a melting point of 173 to 175 °C. Besides, the IC50 in series [1] is < 500 nM.

With `N#Cc1c(-c2ccc(S(=O)(=O)NC(CF)CF)cn2)n(C2CCCCC2)c2ccc(F)cc12` [compound 104, 6-(3-cyano-1-cyclohexyl-5-fluoro-1H-indol-2-yl)-N-(1,3-difluoropropan-2-yl)pyridine-3-sulfonamide], the melting point was in the range of 138 to 141 °C. Also, the IC50 in series [1] is < 500 nM.

For the compound `Cc1ccc2c(C#N)c(-c3ccc(S(=O)(=O)N[C@@H](C)C(F)(F)F)cn3)n(C3CCC3)c2c1F` [compound 421, 6-(3-cyano-1-cyclobutyl-7-fluoro-6-methyl-1H-indol-2-yl)-N-[(2S)-1,1,1-trifluoropropan-2-yl]pyridine-3-sulfonamide], the melting point was in the range of 210 to 220 °C. Besides, the half-inhibitory concentration (IC50) in series [1] is < 500 nM.

As to `COC(=O)c1c(-c2ccc(S(=O)(=O)N[C@@H](C)C(F)(F)F)cn2)n(C2CCCCC2)c2ccc(F)cc12` [compound 717, methyl 1-cyclohexyl-5-fluoro-2-(5-{[(2S)-1,1,1-trifluoropropan-2-yl]sulfamoyl}pyridin-2-yl)-1H-indole-3-carboxylate], the melting point lay within 232 to 240 °C. Also, the half-maximal inhibitory concentration (IC50) in series [1] was in the range of 500 to 2000 nM.

In the case of `Cc1ccc2c(C#N)c(-c3ccc(S(=O)(=O)NC(CF)CF)cn3)n(CC3CC3)c2c1` [compound 81, 6-[3-cyano-1-(cyclopropylmethyl)-6-methyl-1H-indol-2-yl]-N-(1,3-difluoropropan-2-yl)pyridine-3-sulfonamide], the melting point was 175 to 182 °C. The IC50 in series [1] is < 500 nM.

Turning to `Cc1cc2c(cc1F)c(C#N)c(-c1ccc(S(=O)(=O)N[C@@H](C)C(F)(F)F)cn1)n2-c1nccs1` [compound 934, 6-[3-cyano-5-fluoro-6-methyl-1-(1,3-thiazol-2-yl)-1H-indol-2-yl]-N-[(2S)-1,1,1-trifluoropropan-2-yl]pyridine-3-sulfonamide], the melting point lay within 203 to 208 °C. Further, in series [1], the IC50 is < 500 nM.

As for `C[C@H](NS(=O)(=O)c1cnc(-c2c(C#N)c3cc(F)ccc3n2CC2CC2)nc1)C(F)(F)F` [compound 548, 2-[3-cyano-1-(cyclopropylmethyl)-5-fluoro-1H-indol-2-yl]-N-[(2S)-1,1,1-trifluoropropan-2-yl]pyrimidine-5-sulfonamide], the melting point was in the range of 175 to 180 °C. Also, in series [1], the half-maximal inhibitory concentration (IC50) lay within 500 to 2000 nM.

The compound `CC(C)(CF)NS(=O)(=O)c1ccc(-c2c(C#N)c3ccc(OC(F)F)cc3n2C2CCCC2)nc1` [compound 67, 6-[3-cyano-1-cyclopentyl-6-(difluoromethoxy)-1H-indol-2-yl]-N-(1-fluoro-2-methylpropan-2-yl)pyridine-3-sulfonamide] returned a melting point of 224 to 229 °C. Moreover, in series [1], the IC50 is < 500 nM.

As for `Cc1cc2c(cc1F)c(C#N)c(-c1ccc(S(=O)(=O)N[C@@H](C)C(F)(F)F)cn1)n2-c1cc(F)ccn1` [compound 926, 6-[3-cyano-5-fluoro-1-(4-fluoropyridin-2-yl)-6-methyl-1H-indol-2-yl]-N-[(2S)-1,1,1-trifluoropropan-2-yl]pyridine-3-sulfonamide], the melting point is 229 to 233 °C. In addition, the IC50 in series [1] was < 500 nM.

`CCc1cc2c(cc1F)c(C(N)=O)c(-c1ccc(S(=O)(=O)N[C@@H](C)C(F)(F)F)cn1)n2-c1cc(Cl)ccn1` [compound 1048, 1-(4-chloropyridin-2-yl)-6-ethyl-5-fluoro-2-(5-{[(2S)-1,1,1-trifluoropropan-2-yl]sulfamoyl}pyridin-2-yl)-1H-indole-3-carboxamide] yielded a melting point of 200 to 204 °C. In series [1], the half-maximal inhibitory concentration (IC50) fell in the range of 500 to 2000 nM.

`C[C@@H](NS(=O)(=O)c1ccc(-c2c(C#N)c3ccc(OC(F)(F)F)cc3n2C2CCC2)nc1)C(F)(F)F` [compound 191, 6-[3-cyano-1-cyclobutyl-6-(trifluoromethoxy)-1H-indol-2-yl]-N-[(2R)-1,1,1-trifluoropropan-2-yl]pyridine-3-sulfonamide] displayed a melting point of 171 to 177 °C. For the same compound, in series [1], the IC50 lay within 500 to 2000 nM.

`COc1ccc2c(c1)c(C#N)c(-c1ccc(S(=O)(=O)N[C@H](C)C(F)(F)F)cn1)n2C1CCC1` [compound 500, 6-(3-cyano-1-cyclobutyl-5-methoxy-1H-indol-2-yl)-N-[(2R)-1,1,1-trifluoropropan-2-yl]pyridine-3-sulfonamide]: the melting point was in the range of 181 to 186 °C. Besides, the IC50 in series [1] is < 500 nM.

As to `CCc1cc2c(cc1F)c(C#N)c(-c1ccc(S(=O)(=O)N[C@@H](C)C(F)(F)F)cn1)n2-c1ncc(Cl)cn1` [compound 942, 6-[1-(5-chloropyrimidin-2-yl)-3-cyano-6-ethyl-5-fluoro-1H-indol-2-yl]-N-[(2S)-1,1,1-trifluoropropan-2-yl]pyridine-3-sulfonamide], the melting point lay in the range of 222 to 229 °C. In series [1], the 50% inhibitory concentration (IC50) was < 500 nM.

`N#Cc1c(-c2ccc(S(=O)(=O)NC(CF)CF)cn2)n(C2CCCC2)c2ccc(OC(F)F)cc12` [compound 33, 6-[3-cyano-1-cyclopentyl-5-(difluoromethoxy)-1H-indol-2-yl]-N-(1,3-difluoropropan-2-yl)pyridine-3-sulfonamide]: the melting point lay in the range of 172 to 175 °C. The IC50 in series [1] is < 500 nM.

On to `CC(C)NS(=O)(=O)c1cnc(-c2c(C#N)c3ccc(OC(F)(F)F)cc3n2C2CCCC2)nc1` [compound 117, 2-[3-cyano-1-cyclopentyl-6-(trifluoromethoxy)-1H-indol-2-yl]-N-(propan-2-yl)pyrimidine-5-sulfonamide], for which the melting point was 216 to 218 °C. Also, the IC50 in series [1] is 500 to 2000 nM.

The compound `CC(C)NS(=O)(=O)c1ccc(-c2c(C#N)c3ccc(OC(F)(F)F)cc3n2CC2CC2)nc1` [compound 11, 6-[3-cyano-1-(cyclopropylmethyl)-6-(trifluoromethoxy)-1H-indol-2-yl]-N-(propan-2-yl)pyridine-3-sulfonamide] displayed a melting point of 203 to 205 °C. Moreover, the IC50 in series [1] was in the range of 500 to 2000 nM.

The compound `CC(C)(NS(=O)(=O)c1ccc(-c2c(C#N)c3cc(F)ccc3n2-c2ncccn2)nc1)C(F)(F)F` [compound 602, 6-[3-cyano-5-fluoro-1-(pyrimidin-2-yl)-1H-indol-2-yl]-N-(1,1,1-trifluoro-2-methylpropan-2-yl)pyridine-3-sulfonamide] had a melting point of 231 to 234 °C. Besides, the concentration for half-maximal inhibition (IC50) in series [1] was 500 to 2000 nM.

The compound `CC(C)S(=O)(=O)Nc1ccc(-c2c(C#N)c3ccc(OCC(F)(F)F)cc3n2CC2CC2)nc1` [compound 283, N-{6-[3-cyano-1-(cyclopropylmethyl)-6-(2,2,2-trifluoroethoxy)-1H-indol-2-yl]pyridin-3-yl}propane-2-sulfonamide] registered a melting point of 188 to 193 °C. Further, in series [1], the IC50 lay in the range of 2000 to 5000 nM.

Compound `N#Cc1c(-c2ccc(S(=O)(=O)NC(CF)CF)cn2)n(C2CCCC2)c2cc(F)ccc12` [compound 307, 6-(3-cyano-1-cyclopentyl-6-fluoro-1H-indol-2-yl)-N-(1,3-difluoropropan-2-yl)pyridine-3-sulfonamide] yielded a melting point of 166 to 168 °C. Besides, the IC50 in series [1] is < 500 nM.
